Assay results reported in US5998488A, “Ophthalmic composition” (Lion Corporation, priority 1994, dated 1999).
Read-outs that look alike come from different tables or passages of the source.

Experiments:
[1] = system: Aspergillus nigar (A. nigar); assay: Antimicrobial test (preservative effectiveness test, USP), A. nigar; assay type: cell-based; settings: benzalkonium chloride 0.01%
Procedure: (§1) The solutions of Experiment 1 were subject to an antimicrobial test.
(§2) Using bacteria Escherichia coli (E. coli), Pseudomonas aeruginosa (P. aeru), and Stapyrococcus aureus (S. aureus) and fungi Aspergillus nigar (A. nigar) and Candida albicans (Candida) as infectious microorganisms, a preservative effectiveness test was carried out according to the Pharmacopoeia of the United States.
(§3) ++: microorganisms died within 5 days
(§4) +: microorganisms died in 6-10 days
(§5) -:microorganisms died in 11-15 days or over 15 days

[2] = system: E. coli, P. aeru, S. aureus, A. nigar, Candida; assay: Antimicrobial test (preservative effectiveness test, USP), microorganism type not specified; assay type: cell-based; settings: α-cyclodextrin 0.03% or more
Procedure: as §2, §3, §4, §5
Solutions were prepared in accordance with the formulation shown in Experiment 1 in a conventional manner as used in the preparation of eye drops while the amount of disodium ethylenediaminetetraacetate (EDTA-2Na) blended was in the range of 0.002 to 0.3%. The solutions were subject to the antimicrobial test of Experiment 3 and evaluated for antimicrobial activity according to the same criterion as above.
Solutions of the following formulation were prepared in a conventional manner as used in the preparation of eye drops.
The solutions were subject to the antimicrobial test of Experiment 3 and evaluated for antimicrobial activity according to the same criterion as above.
Solutions of the formulation shown in Table 7 were prepared to a total amount of 1,000 g in a conventional manner as used in the preparation of eye drops. […] The ophthalmic solutions were subject to the same tests as in Experiments 1 and 3. In the test of Experiment 3, the ophthalmic solutions were evaluated for antimicrobial activity according to the same criterion as before.

[3] = Benzalkonium chloride adsorption test (soft contact lens Seequence); assay type: physicochemical; settings: benzalkonium chloride 0.01%, 25° C., 24 hours
Procedure: (§6) A test was conducted to examine the inhibition of benzalkonium chloride adsorption to soft contact lenses. Solutions of the following formulation were prepared in a conventional manner as used in the preparation of eye drops.
(§7) The percent inhibition of benzalkonium chloride adsorption to commercially available soft contact lenses was determined by the following test.
(§8) Benzalkonium chloride adsorption test A 30-ml vial was charged with 10 ml of the solution and a soft contact lens was immersed therein. In a constant temperature tank at 25° C., the vial was shaken for 24 hours. After the contact lens was removed from the vial, the concentration of benzalkonium chloride in the solution was quantitatively determined by high performance liquid chromatography. A percent inhibition of adsorption was calculated according to the following formula.
(§9) As a control, the above procedure was repeated except that no contact lens was immersed.
(§10) Inhibition of adsorption (%)=(concentration of benzalkonium chloride in sample solution)/(concentration of benzalkonium chloride in control solution)×100
(§11) Note that Seequence, Nichicon Soft and Menicon Soft are trademarks of soft contact lenses commercially available from Bausch & Lomb, Nihon Contact K.K., and Menicon K.K., respectively.

[4] = system: Escherichia coli (E. coli); assay: Antimicrobial test (preservative effectiveness test, USP), E. coli; assay type: cell-based; settings: benzalkonium chloride 0.01%
Procedure: as §1, §2, §3, §4, §5

[5] = system: Pseudomonas aeruginosa (P. aeru); assay: Antimicrobial test (preservative effectiveness test, USP), P. aeru; assay type: cell-based; settings: benzalkonium chloride 0.01%
Procedure: as §1, §2, §3, §4, §5

[6] = Benzalkonium chloride adsorption test (soft contact lens Nichicon Soft μ); assay type: physicochemical; settings: benzalkonium chloride 0.01%, 25° C., 24 hours
Procedure: as §6, §7, §8, §9, §10, §11

[7] = Benzalkonium chloride adsorption test (soft contact lens Menicon Soft 72); assay type: physicochemical; settings: benzalkonium chloride 0.01%, 25° C., 24 hours
Procedure: as §6, §7, §8, §9, §10, §11

[8] = system: Stapyrococcus aureus (S. aureus); assay: Antimicrobial test (preservative effectiveness test, USP), S. aureus; assay type: cell-based; settings: benzalkonium chloride 0.01%
Procedure: as §1, §2, §3, §4, §5

[9] = assay type: physicochemical; settings: 6 months at 50° C.
Procedure: […] More specifically, solutions were prepared in accordance with the formulation shown in Experiment 1 while the amount of α-cyclodextrin mixed was in the range of 0.03 to 2%.

[10] = system: Candida albicans (Candida); assay: Antimicrobial test (preservative effectiveness test, USP), Candida; assay type: cell-based; settings: benzalkonium chloride 0.01%
Procedure: as §1, §2, §3, §4, §5

[11] = Benzalkonium chloride adsorption test (soft contact lenses, lens not given); assay type: physicochemical; settings: concentration of at least 0.03%
Procedure: as §7, §8, §9, §10
Solutions of the formulation shown in Table 7 were prepared to a total amount of 1,000 g in a conventional manner as used in the preparation of eye drops. Ophthalmic solutions of Examples 2 to 13 were obtained. The ophthalmic solutions were subject to the same tests as in Experiments 1 and 3. In the test of Experiment 3, the ophthalmic solutions were evaluated for antimicrobial activity according to the same criterion as before.

OC[C@H]1O[C@@H]2O[C@H]3[C@H](O)[C@@H](O)[C@@H](O[C@H]4[C@H](O)[C@@H](O)[C@@H](O[C@H]5[C@H](O)[C@@H](O)[C@@H](O[C@H]6[C@H](O)[C@@H](O)[C@@H](O[C@H]7[C@H](O)[C@@H](O)[C@@H](O[C@H]1[C@H](O)[C@H]2O)O[C@@H]7CO)O[C@@H]6CO)O[C@@H]5CO)O[C@@H]4CO)O[C@@H]3CO [α-cyclodextrin]
Antimicrobial activity ([1]; α-cyclodextrin 0.01%): + (microorganisms died in 6-10 days) | Antimicrobial activity ([1]; α-cyclodextrin 0.02%): + (microorganisms died in 6-10 days) | Antimicrobial activity ([1]; α-cyclodextrin 0.03%): - (microorganisms died in 11-15 days or over 15 days) | Antimicrobial activity ([1]; α-cyclodextrin 0.05%): - (microorganisms died in 11-15 days or over 15 days) | Antimicrobial activity ([1]; α-cyclodextrin 0.1%): - (microorganisms died in 11-15 days or over 15 days) | Antimicrobial activity ([1]; α-cyclodextrin 0.2%): - (microorganisms died in 11-15 days or over 15 days) | Antimicrobial activity ([1]; α-cyclodextrin 0.3%): - (microorganisms died in 11-15 days or over 15 days) | Antimicrobial activity of solution containing benzalkonium chloride (in words) [2]: significantly reduced in antimicrobial activity | Inhibition of adsorption ([3]; α-cyclodextrin 0.01%): 88% | Inhibition of adsorption ([3]; α-cyclodextrin 0.02%): 92% | Inhibition of adsorption ([3]; α-cyclodextrin 0.03%): 100% | Inhibition of adsorption ([3]; α-cyclodextrin 0.05%): 100% | Inhibition of adsorption ([3]; α-cyclodextrin 0.1%): 100% | Inhibition of adsorption ([3]; α-cyclodextrin 0.2%): 100% | Inhibition of adsorption ([3]; α-cyclodextrin 0.3%): 100% | Antimicrobial activity ([4]; α-cyclodextrin 0.01%): + (microorganisms died in 6-10 days) | Antimicrobial activity ([4]; α-cyclodextrin 0.02%): + (microorganisms died in 6-10 days) | Antimicrobial activity ([4]; α-cyclodextrin 0.03%): - (microorganisms died in 11-15 days or over 15 days) | Antimicrobial activity ([4]; α-cyclodextrin 0.05%): - (microorganisms died in 11-15 days or over 15 days) | Antimicrobial activity ([4]; α-cyclodextrin 0.1%): - (microorganisms died in 11-15 days or over 15 days) | Antimicrobial activity ([4]; α-cyclodextrin 0.2%): - (microorganisms died in 11-15 days or over 15 days) | Antimicrobial activity ([4]; α-cyclodextrin 0.3%): - (microorganisms died in 11-15 days or over 15 days) | Antimicrobial activity ([5]; α-cyclodextrin 0.01%): + (microorganisms died in 6-10 days) | Antimicrobial activity ([5]; α-cyclodextrin 0.02%): + (microorganisms died in 6-10 days) | Antimicrobial activity ([5]; α-cyclodextrin 0.03%): - (microorganisms died in 11-15 days or over 15 days) | Antimicrobial activity ([5]; α-cyclodextrin 0.05%): - (microorganisms died in 11-15 days or over 15 days) | Antimicrobial activity ([5]; α-cyclodextrin 0.1%): - (microorganisms died in 11-15 days or over 15 days) | Antimicrobial activity ([5]; α-cyclodextrin 0.2%): - (microorganisms died in 11-15 days or over 15 days) | Antimicrobial activity ([5]; α-cyclodextrin 0.3%): - (microorganisms died in 11-15 days or over 15 days) | Inhibition of adsorption ([6]; α-cyclodextrin 0.01%): 87% | Inhibition of adsorption ([6]; α-cyclodextrin 0.02%): 93% | Inhibition of adsorption ([6]; α-cyclodextrin 0.03%): 100% | Inhibition of adsorption ([6]; α-cyclodextrin 0.05%): 100% | Inhibition of adsorption ([6]; α-cyclodextrin 0.1%): 100% | Inhibition of adsorption ([6]; α-cyclodextrin 0.2%): 100% | Inhibition of adsorption ([6]; α-cyclodextrin 0.3%): 100% | Inhibition of adsorption ([7]; α-cyclodextrin 0.01%): 88% | Inhibition of adsorption ([7]; α-cyclodextrin 0.02%): 92% | Inhibition of adsorption ([7]; α-cyclodextrin 0.03%): 100% | Inhibition of adsorption ([7]; α-cyclodextrin 0.05%): 100% | Inhibition of adsorption ([7]; α-cyclodextrin 0.1%): 100% | Inhibition of adsorption ([7]; α-cyclodextrin 0.2%): 100% | Inhibition of adsorption ([7]; α-cyclodextrin 0.3%): 100% | Antimicrobial activity ([8]; α-cyclodextrin 0.01%): + (microorganisms died in 6-10 days) | Antimicrobial activity ([8]; α-cyclodextrin 0.02%): + (microorganisms died in 6-10 days) | Antimicrobial activity ([8]; α-cyclodextrin 0.03%): - (microorganisms died in 11-15 days or over 15 days) | Antimicrobial activity ([8]; α-cyclodextrin 0.05%): - (microorganisms died in 11-15 days or over 15 days) | Antimicrobial activity ([8]; α-cyclodextrin 0.1%): - (microorganisms died in 11-15 days or over 15 days) | Antimicrobial activity ([8]; α-cyclodextrin 0.2%): - (microorganisms died in 11-15 days or over 15 days) | Antimicrobial activity ([8]; α-cyclodextrin 0.3%): - (microorganisms died in 11-15 days or over 15 days) | Stability ([9]; α-cyclodextrin 0.03%): .largecircle. | Stability ([9]; α-cyclodextrin 0.5%): .largecircle. | Stability ([9]; α-cyclodextrin 1%): Δ | Antimicrobial activity ([10]; α-cyclodextrin 0.01%): + (microorganisms died in 6-10 days) | Antimicrobial activity ([10]; α-cyclodextrin 0.02%): + (microorganisms died in 6-10 days) | Antimicrobial activity ([10]; α-cyclodextrin 0.03%): - (microorganisms died in 11-15 days or over 15 days) | Antimicrobial activity ([10]; α-cyclodextrin 0.05%): - (microorganisms died in 11-15 days or over 15 days) | Antimicrobial activity ([10]; α-cyclodextrin 0.1%): - (microorganisms died in 11-15 days or over 15 days) | Antimicrobial activity ([10]; α-cyclodextrin 0.2%): - (microorganisms died in 11-15 days or over 15 days) | Antimicrobial activity ([10]; α-cyclodextrin 0.3%): - (microorganisms died in 11-15 days or over 15 days) | Inhibition of adsorption of benzalkonium chloride to soft contact lenses (in words) [11]: The inhibition effect is remarkable
